The NIST ThermoML archive (doi:10.1021/je060203o)
± gives the expanded uncertainty stated by the source.

Conditions: Liquid; for speed of sound: Pulse-echo method; for mass density: Vibrating tube method

CCCCCn1cc[n+](C)c1.O=S(=O)([N-]S(=O)(=O)C(F)(F)F)C(F)(F)F
Conditions | mass density [kg/m3] | speed of sound [m/s]
288.15 K, 500 kPa | – | 1255.5 ± 3.1
288.15 K, 3500 kPa | – | 1266 ± 3.1
288.15 K, 7000 kPa | – | 1278.1 ± 3.1
288.15 K, 10000 kPa | – | 1288.3 ± 3.1
288.15 K, 13500 kPa | – | 1299.9 ± 3.1
288.15 K, 16990 kPa | – | 1311.2 ± 3.1
288.15 K, 20000 kPa | – | 1320.7 ± 3.1
288.15 K, 30000 kPa | – | 1351.7 ± 3.2
288.15 K, 40000 kPa | – | 1380.9 ± 3.2
288.15 K, 50000 kPa | – | 1409 ± 3.2
288.15 K, 60000 kPa | – | 1435.6 ± 3.2
288.15 K, 70000 kPa | – | 1461.2 ± 3.2
288.15 K, 80000 kPa | – | 1486 ± 3.2
288.15 K, 90000 kPa | – | 1509.9 ± 3.2
288.15 K, 100000 kPa | – | 1533 ± 3.2
288.15 K, 112500 kPa | – | 1560.9 ± 3.2
288.15 K, 125000 kPa | – | 1587.9 ± 3.2
288.15 K, 137510 kPa | – | 1613.5 ± 3.2
288.15 K, 150000 kPa | – | 1637.8 ± 3.2
298.15 K, 100 kPa | 1404.45 ± 2.3 | –
298.15 K, 500 kPa | – | 1232.1 ± 3.1
298.15 K, 1830 kPa | 1405.67 ± 2.3 | –
298.15 K, 3500 kPa | – | 1242.7 ± 3.1
298.15 K, 7000 kPa | – | 1255 ± 3.1
298.15 K, 10000 kPa | – | 1265.5 ± 3.1
298.15 K, 10020 kPa | 1411.85 ± 2.5 | –
298.15 K, 13500 kPa | – | 1277.3 ± 3.1
298.15 K, 14980 kPa | 1415.45 ± 2.6 | –
298.15 K, 16990 kPa | – | 1288.9 ± 3.1
298.15 K, 19750 kPa | 1418.8 ± 2.8 | –
298.15 K, 20000 kPa | – | 1298.6 ± 3.1
298.15 K, 25860 kPa | 1422.94 ± 2.9 | –
298.15 K, 30000 kPa | – | 1330.5 ± 3.2
298.15 K, 31480 kPa | 1426.64 ± 3 | –
298.15 K, 37770 kPa | 1430.64 ± 3.2 | –
298.15 K, 40000 kPa | – | 1360.4 ± 3.2
298.15 K, 44170 kPa | 1434.54 ± 3.4 | –
298.15 K, 50000 kPa | – | 1388.9 ± 3.2
298.15 K, 50750 kPa | 1438.46 ± 3.5 | –
298.15 K, 59590 kPa | 1443.56 ± 3.8 | –
298.15 K, 60000 kPa | – | 1415.9 ± 3.2
298.15 K, 70000 kPa | – | 1441.9 ± 3.2
298.15 K, 80000 kPa | – | 1467 ± 3.2
298.15 K, 90000 kPa | – | 1491.1 ± 3.2
298.15 K, 100000 kPa | – | 1514.5 ± 3.2
298.15 K, 112500 kPa | – | 1542.6 ± 3.2
298.15 K, 125000 kPa | – | 1569.7 ± 3.2
298.15 K, 137510 kPa | – | 1595.7 ± 3.2
298.15 K, 150000 kPa | – | 1620.3 ± 3.2
299.15 K, 100 kPa | 1403.5 ± 2.3 | –
299.15 K, 1830 kPa | 1404.78 ± 2.3 | –
299.15 K, 10020 kPa | 1410.92 ± 2.5 | –
299.15 K, 14980 kPa | 1414.53 ± 2.6 | –
299.15 K, 19750 kPa | 1417.87 ± 2.8 | –
299.15 K, 25860 kPa | 1422.01 ± 2.9 | –
299.15 K, 31480 kPa | 1425.7 ± 3 | –
299.15 K, 37770 kPa | 1429.73 ± 3.2 | –
299.15 K, 44170 kPa | 1433.68 ± 3.4 | –
299.15 K, 50750 kPa | 1437.64 ± 3.5 | –
299.15 K, 59590 kPa | 1442.74 ± 3.8 | –
300.15 K, 100 kPa | 1402.62 ± 2.3 | –
300.15 K, 1830 kPa | 1403.85 ± 2.3 | –
300.15 K, 10020 kPa | 1410.01 ± 2.5 | –
300.15 K, 14980 kPa | 1413.57 ± 2.6 | –
300.15 K, 19750 kPa | 1416.91 ± 2.8 | –
300.15 K, 25860 kPa | 1421.12 ± 2.9 | –
300.15 K, 31480 kPa | 1424.81 ± 3 | –
300.15 K, 37770 kPa | 1428.87 ± 3.2 | –
300.15 K, 44170 kPa | 1432.84 ± 3.4 | –
300.15 K, 50750 kPa | 1436.83 ± 3.5 | –
300.15 K, 59590 kPa | 1441.99 ± 3.8 | –
301.15 K, 100 kPa | 1401.81 ± 2.3 | –
301.15 K, 1830 kPa | 1403.07 ± 2.3 | –
301.15 K, 10020 kPa | 1409.19 ± 2.5 | –
301.15 K, 14980 kPa | 1412.71 ± 2.6 | –
301.15 K, 19750 kPa | 1416.05 ± 2.8 | –
301.15 K, 25860 kPa | 1420.19 ± 2.9 | –
301.15 K, 31480 kPa | 1423.9 ± 3 | –
301.15 K, 37770 kPa | 1427.94 ± 3.2 | –
301.15 K, 44170 kPa | 1431.88 ± 3.4 | –
301.15 K, 50750 kPa | 1435.89 ± 3.5 | –
301.15 K, 59590 kPa | 1441.12 ± 3.7 | –
302.15 K, 100 kPa | 1400.89 ± 2.3 | –
302.15 K, 1830 kPa | 1402.16 ± 2.3 | –
302.15 K, 10020 kPa | 1408.28 ± 2.5 | –
302.15 K, 14980 kPa | 1411.85 ± 2.6 | –
302.15 K, 19750 kPa | 1415.2 ± 2.7 | –
302.15 K, 25860 kPa | 1419.36 ± 2.9 | –
302.15 K, 31480 kPa | 1423.08 ± 3 | –
302.15 K, 37770 kPa | 1427.17 ± 3.2 | –
302.15 K, 44170 kPa | 1431.17 ± 3.3 | –
302.15 K, 50750 kPa | 1435.18 ± 3.5 | –
302.15 K, 59590 kPa | 1440.42 ± 3.7 | –
303.15 K, 100 kPa | 1399.89 ± 2.3 | –
303.15 K, 1830 kPa | 1401.18 ± 2.3 | –
303.15 K, 10020 kPa | 1407.27 ± 2.5 | –
303.15 K, 14980 kPa | 1410.82 ± 2.6 | –
303.15 K, 19750 kPa | 1414.3 ± 2.7 | –
303.15 K, 25860 kPa | 1418.46 ± 2.9 | –
303.15 K, 31480 kPa | 1422.18 ± 3 | –
303.15 K, 37770 kPa | 1426.25 ± 3.2 | –
303.15 K, 44170 kPa | 1430.26 ± 3.3 | –
303.15 K, 50750 kPa | 1434.31 ± 3.5 | –
303.15 K, 59590 kPa | 1439.59 ± 3.7 | –
308.15 K, 100 kPa | 1395.34 ± 2.3 | –
308.15 K, 500 kPa | – | 1209.4 ± 3.1
308.15 K, 1830 kPa | 1396.59 ± 2.3 | –
308.15 K, 3500 kPa | – | 1220.4 ± 3.1
308.15 K, 7000 kPa | – | 1233.1 ± 3.1
308.15 K, 10000 kPa | – | 1243.7 ± 3.1
308.15 K, 10020 kPa | 1402.73 ± 2.5 | –
308.15 K, 13500 kPa | – | 1255.8 ± 3.1
308.15 K, 14980 kPa | 1406.29 ± 2.6 | –
308.15 K, 16990 kPa | – | 1267.5 ± 3.1
308.15 K, 19750 kPa | 1409.65 ± 2.7 | –
308.15 K, 20000 kPa | – | 1277.5 ± 3.1
308.15 K, 25860 kPa | 1413.83 ± 2.9 | –
308.15 K, 30000 kPa | – | 1310 ± 3.2
308.15 K, 31480 kPa | 1417.59 ± 3 | –
308.15 K, 37770 kPa | 1421.72 ± 3.1 | –
308.15 K, 40000 kPa | – | 1340.4 ± 3.2
308.15 K, 44170 kPa | 1425.82 ± 3.3 | –
308.15 K, 50000 kPa | – | 1369.1 ± 3.2
308.15 K, 50750 kPa | 1429.95 ± 3.5 | –
308.15 K, 59590 kPa | 1435.35 ± 3.7 | –
308.15 K, 60000 kPa | – | 1396.7 ± 3.2
308.15 K, 70000 kPa | – | 1423.2 ± 3.2
308.15 K, 80000 kPa | – | 1448.6 ± 3.2
308.15 K, 90000 kPa | – | 1473 ± 3.2
308.15 K, 100000 kPa | – | 1496.6 ± 3.2
308.15 K, 112500 kPa | – | 1525.2 ± 3.2
308.15 K, 125000 kPa | – | 1552.6 ± 3.2
308.15 K, 137510 kPa | – | 1579 ± 3.2
308.15 K, 150000 kPa | – | 1603.7 ± 3.2
313.15 K, 100 kPa | 1390.55 ± 2.2 | –
313.15 K, 1830 kPa | 1391.88 ± 2.3 | –
313.15 K, 10020 kPa | 1397.99 ± 2.5 | –
313.15 K, 14980 kPa | 1401.57 ± 2.6 | –
313.15 K, 19750 kPa | 1404.95 ± 2.7 | –
